Reference: US11155580B2, “Modified proteins and methods of use thereof” (YALE UNIVERSITY, priority 2013, dated 2021)
Entries after “also recorded” stand apart in the source; their conditions may differ. Where a SMILES comes first, the peptide text is derived from it. Where no end group is shown, it is not given here. The star is where a group is joined. X1 = CCN(CC)c1ccc2c(-c3ccc(S(=O)(=O)*)cc3S(=O)(=O)[O-])c3ccc(=[N+](CC)CC)cc-3oc2c1; rhodamine = not defined here

Columns and labels:
[1] = test system: HeLa cells; assay: Peptide degradation in HeLa cells, HPLC of whole cell lysates; type: in vitro ADME; conditions: 1 μM, 30 min, RIPA lysate
Method: Approximately 200,000 HeLa cells were treated with rhodamine labeled cationic miniature proteins and peptides as described for experiments using flow cytometry to measure peptide uptake. These cells were pelleted in 96 well microtitre plates (300 g, 3 min) and lysed in 40 μL RIPA buffer (150 mM NaCl, 50 mM Tris pH 7.4, 50 mM EDTA pH 7.4, 0.1% SDS, 1% Triton X-100) on ice for 30 min. The insoluble material was cleared from the cell lysate via centrifugation (10,000 g, 10 min) and 20 μL of the supernatant was diluted into 400 μL of 15% CH3CN in water. These samples were analyzed via reverse phase HPLC (Shimadzu Instruments) fitted with a fluorescence detector and a C18 column (Poroshell 120 SB-C18, 2.7 μm, 100 mm×3 mm ID, Agilent).

[2] = target: cathepsin D (Homo sapiens, UniProt P07339); assay: Resistance to acid proteases: cathepsin D; type: in vitro ADME; conditions: 50 pmol, 30 min, 37° C., pH 5
Chain of cathepsin D (P07339 65-412, species assumed): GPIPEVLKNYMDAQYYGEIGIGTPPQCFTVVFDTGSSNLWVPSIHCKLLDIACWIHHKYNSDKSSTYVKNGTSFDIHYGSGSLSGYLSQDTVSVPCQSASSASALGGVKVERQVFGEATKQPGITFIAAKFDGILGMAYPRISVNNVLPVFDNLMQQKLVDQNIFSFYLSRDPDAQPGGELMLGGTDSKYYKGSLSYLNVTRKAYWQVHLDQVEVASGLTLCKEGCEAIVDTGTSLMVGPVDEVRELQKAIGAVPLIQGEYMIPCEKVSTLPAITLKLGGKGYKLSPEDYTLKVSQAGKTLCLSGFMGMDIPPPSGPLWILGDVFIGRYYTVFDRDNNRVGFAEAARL
Method: (§1) 50 pmol aPPR, 5.2R, 5.3R, ZF5.3R, TatR (SEQ ID NO:67), or Arg8R (SEQ ID NO:68) were incubated with 5 pg cathepsin B, D, or L for 30 min at 37° C. in 10 μL of 20 mM sodium phosphate buffer (pH 5) containing 150 mM NaCl. At the end of the incubation, the reaction was stopped by adding 40 μL of a solution containing a 84:15:1 ratio of water:EtOH:TFA before analysis by HPLC.

[3] = test system: HeLa cells; assay: Effects of endocytosis inhibitors on cell uptake, confocal microscopy; type: cell-based; conditions: 1 μM rhodamine labeled, 30 min, 37° C.; for effect of EIPA on uptake: 50 μM EIPA; for effect of dynasore on uptake: 80 μM dynasore; for effect of MβCD on uptake: 5 mM MβCD
Method: HeLa cells grown for 24 h in glass bottom plates were incubated with HKR buffer, or HKR buffer containing 80 μM dynasore, 50 μM N-ethyl-isopropyl-amiloride, or 5 mM methyl-β-cyclodextrin for 30 min at 37° C. prior to the addition of 1 μM rhodamine-labeled miniature protein or peptide (Tat (SEQ ID NO:67) and Arg8 (SEQ ID NO:68)). The cells were washed twice with DMEM, the nuclei labeled with Hoescht, and images acquired as described above for colocalization experiments.

[4] = target: cathepsin B (Homo sapiens, UniProt P07858); assay: Resistance to acid proteases: cathepsin B; type: in vitro ADME; conditions: 50 pmol, 30 min, 37° C., pH 5
Method: as §1

[5] = test system: HeLa cells; assay: HPLC analysis of cytosolic extracts prepared with streptolysin O; type: cell-based; conditions: HeLa cells treated with rhodamine labeled molecule
Method: To generate cytosolic extracts, HeLa cells were treated with streptolysin O (SLO), a well characterized bacterial toxin that creates pores in the plasma membranes of target cells (Walev et al., 2002, FASEB 16:237-239). […] Moreover, when the toxin is added to cultured cells at 4° C. and washed with PBS before raising the temperature to 37° C., pores are created only in the plasma membrane and the release of ER, golgi, or endolysosomal contents are avoided (Androlewicz et al., 1993, Proc Natl Acad Sci USA 90:9130-9134).
First, selective release of the cytoplasmic contents of HeLa cells using the published procedures was verified. HeLa cells were treated with 20 μg/mL SLO in PBS containing 5 mM DTT (20 min, 4° C.), washed (three PBS washes, 150 μL each), resuspended in PBS, and incubated at 37° C. for 15 min, after which 1.5 μM propidium iodide (PI), a marker of permeabilized cell membranes, was added.

[6] = test system: HeLa cells; assay: Colocalization with Alexa-488-transferrin (Tf488), live cell confocal microscopy; type: cell-based; conditions: 1 μM, 30 min
Method: To examine the colocalization of rhodamine labeled miniature proteins or peptides with Alexa-488-transferrin (Tf488), HeLa cells were plated (200 μl, 10^4 cells/well, 96 well glass bottom plates, Matrical) the day prior to experiments. The media was replaced with 150 μL Hepes-Krebs-Ringer's (HKR) buffer (140 mM NaCl, 2 mM KCl, 1 mM CaCl2, 1 mM MgCl2, 10 mM Hepes pH 7.4) containing 1 μM miniature protein or 25 nM Alexa-488-transferrin (Molecular Probes) and the cells incubated at 37° C. for 30 min. The cells were then rinsed twice with 200 μL, HKR buffer and nuclei were labeled by overlaying 200 μL HKR containing 300 nM Hoechst 33342 (Molecular Probes Cat. # H3570) for 5 minutes. Images of cells were acquired using a PerkinElmer LiveView spinning disk confocal microscope fitted with a 60×1.2 NA objective. Colocalization with Rab-GFP fusions was examined in an analogous way using HeLa cells transfected with the appropriate expression plasmid.
Colocalization between rhodamine and fluorescein labeled miniature proteins and peptides, or between rhodamine labeled miniature proteins and markers of endocytosis was completed using confocal microscopy. Live cell confocal microscopy was conducted using a PerkinElmer LiveView spinning disk confocal microscope fitted with heated microscope enclosure (maintained at 37° C.), a 60×1.2 NA objective, laser illumination, a Nipkow CSU-1× spinning disk, and a Hammamatsu CS9100 EMCCD camera operated using Velocity software. Alexafluor-488-transferrin was detected using a 488 nm laser and a 520 nm long pass filter; tetraethylrhodamine and Alexafluor-546-transferrin were detected using a 546 nm laser line and a 580 nm long pass filter, Hoescht 33342 was detected using a 405 nm laser line and a 450 nm long pass filter. Images were processed for presentation by using the ‘subtract background’ option and linear contrast adjustments in Image J. All adjustments were applied uniformly to the entire image. Colocalization analysis was performed using the JACOP plugin (Bolte and Cordelières, 2006), available on the ImageJ website. The fraction of rhodamine signal overlapping with EGFP signal (R E G) was calculated using Mander's coefficient and automatic thresholding. Pearson's correlation coefficient (R) was also obtained using the JACOP plugin.

[7] = target: cathepsin L (Homo sapiens, UniProt P07711); assay: Resistance to acid proteases: cathepsin L; type: in vitro ADME; conditions: 50 pmol, 30 min, 37° C., pH 5
Chain of cathepsin L (P07711 114-333, species assumed): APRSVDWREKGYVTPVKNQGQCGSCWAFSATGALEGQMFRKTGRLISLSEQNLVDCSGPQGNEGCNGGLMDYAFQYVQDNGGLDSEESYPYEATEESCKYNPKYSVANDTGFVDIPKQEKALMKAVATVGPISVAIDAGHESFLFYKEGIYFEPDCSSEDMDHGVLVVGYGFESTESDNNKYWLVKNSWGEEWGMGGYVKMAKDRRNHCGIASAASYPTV
Method: as §1

[8] = Circular dichroism thermal melt; type: physicochemical; conditions: unlabeled, 25 μM in PBS
Method: FIG. 8, comprising FIGS. 8A-8C, depicts the results of circular dichroism (CD) analysis of miniature proteins studied herein. (FIG. 8A) Wavelength dependent CD spectra of miniature proteins at 25 μM concentration in PBS at 37° C. (FIG. 8B) Temperature dependent ellipticity at 222 nm of miniature proteins at 25 μM.
CD spectra of unlabeled aPP-based miniature were recorded from samples containing 25 μM peptide in PBS as described (Luedtke et al., 2007, Nat Chem Biol. 3:779-784). CD spectra of ZF and ZF5.3 in the presence and absence of Zn2+ were recorded from solutions of peptide (12.5-25 μM) dissolved in 10 mM argon-purged Tris-HCL (pH 8.0) in the presence or absence of 0.5 mM dithiothreitol and 2 eq. ZnC12. Samples were incubated for 30 min at RT and analyzed on a Jasco J-810-150S spectropolarimeter. Final plots show background-normalized averages of six scans.

[9] = test system: GR★-GFP; assay: GIGT, transient transfection with GR★-GFP; type: cell-based; conditions: 500 nM, 30 min, HeLa cells
Method: Cells were plated (10,000 cells/well) onto 96-well glass bottom plates (Matrical Bioscience, #MGB096-1-2-LG-L) in full DMEM (HeLa) or full McCoy's 5A (U205) media and allowed to adhere overnight. […] Cells were allowed to transfect for 6 h at 37° C. under 5% CO2 before removing transfection media and replenishing growth media. Image analysis of GIGT using Cell Profiler. Cell image files were loaded into a customizable CellProfiler7 ‘pipeline’ as individual GFP (green) and Hoechst (blue) channels, and converted to grayscale. Nuclei were identified and segmented from the gray Hoechst channel based on Otsu three-class thresholding, with pixels in the middle intensity class assigned to background. Clumped objects were individually distinguished using ‘Laplacian of Gaussian’ modeling and separated by ‘shape’. […] The ratio of mean intensities of the nuclear region divided by the cytosolic region of the GFP image was measured for every cell examined, and 40-80 transfected cells from 15-25 images were acquired for each treatment.
Cells were allowed to incubate in the presence of ligand for 30 min at 37° C. under 5% CO2. […] Fluorescence illumination was initiated using an EXFO X-cite Series 120 Hg arc lamp. […] Fluorescence intensities of individual cells were quantified using the image analysis algorithm CellProfiler.

[10] = test system: HeLa cervical cancer cells; assay: Internal peptide concentration after co-administration with ZF 5.3; type: cell-based
Method: HeLa cervical cancer cells were incubated in the presence of either 500 nM ZF 4.3-Rhodamine or 500 nM ZF 4.3-Rhodamine with 1 μM ZF 5.3 for 30 minutes. After incubation, external peptide was removed and internal peptide concentration was measured using a microscope with advanced correlation and detection hardware. In the absence of ZF 5.3, only a small amount of ZF 4.3 enters the cell interior, corresponding to ˜8% of the ZF 4.3 concentration added (FIG. 19). In the presence of ZF 5.3, the amount of ZF 4.3 that enters the cell interior quadrupled, raising to ˜35% of the concentration added (FIG. 19).

[11] = Trafficking of a biologically active peptide (NBD) into the cytosol; type: cell-based; conditions: 500 nM NBD fusions
Method: Cells were incubated in the presence of either 500 nM ZF 5.3-NBD or Antp-NBD or Arg8-NBD (FIG. 20). After incubation, internal peptide concentration was measured.

Compound: CC[C@H](C)[C@H](NC(=O)[C@H](CC(C)C)NC(=O)[C@H](CC(=O)O)NC(=O)[C@H](CCCNC(=N)N)NC(=O)[C@@H](NC(=O)[C@@H]1CCCN1C(=O)[C@H](C)NC(=O)[C@H](CC(=O)O)NC(=O)[C@H](CC(=O)O)NC(=O)CNC(=O)[C@@H]1CCCN1C(=O)[C@H](Cc1ccc(O)cc1)NC(=O)[C@@H](NC(=O)[C@@H]1CCCN1C(=O)[C@H](CCC(N)=O)NC(=O)[C@H](CO)NC(=O)[C@@H]1CCCN1C(=O)CNC(=O)[C@@H](N)CCCCNS(=O)(=O)c1ccc(-c2c3ccc(=[N+](CC)CC)cc-3oc3cc(N(CC)CC)ccc23)c(S(=O)(=O)[O-])c1)[C@@H](C)O)C(C)C)C(=O)N[C@@H](CCCNC(=N)N)C(=O)N[C@@H](Cc1ccccc1)C(=O)N[C@@H](Cc1ccc(O)cc1)C(=O)N[C@@H](CCCNC(=N)N)C(=O)N[C@@H](CC(=O)O)C(=O)N[C@@H](CC(C)C)C(=O)N[C@@H](CCCNC(=N)N)C(=O)N[C@@H](CCCNC(=N)N)C(=O)N[C@@H](Cc1ccc(O)cc1)C(=O)N[C@@H](CC(C)C)C(=O)N[C@@H](CC(N)=O)C(=O)N[C@H](C(=O)N[C@H](C(=O)N[C@H](C(=O)N[C@@H](CCCNC(=N)N)C(=O)N[C@@H](Cc1c[nH]cn1)C(=O)N[C@@H](CCCNC(=N)N)C(=O)N[C@@H](Cc1ccc(O)cc1)C(N)=O)[C@@H](C)O)C(C)C)C(C)C [5.3R] (H-K(X1)GPSQPTYPGDDAPVRDLIRFYRDLRRYLNVVTRHRY-NH2)
- degradation during incubation with HeLa cells (HPLC of whole cell lysates) [1]: minimal to no cleavage; also recorded: virtually identical to control samples
- degradation by cathepsin D (HPLC) [2]: cleaved by cathepsin D
- metabolised at 0.5 h ([2]; isolated enzyme cathepsin other, read-out: disappearance after incubation with cathepsin D): ~50%
- effect of EIPA on uptake [3]: dramatically reduced the uptake
- effect of dynasore on uptake [3]: completely blocked the uptake
- effect of MβCD on uptake [3]: completely blocked the uptake
- degradation by cathepsin B (HPLC) [4]: several additional small peaks
- material found in SLO cytoplasmic extracts (HPLC) [5]: presence of intact 5.3R; also recorded: a single peak with the same retention time as the starting material
- intracellular red fluorescent signal [6]: red fluorescent puncta throughout the cytosol
- degradation by cathepsin L (HPLC) [7]: traces identical to the parent peptide; also recorded: to a smaller extent

Compound: GPSQPTYPGDDAPVRDLRRFYRDLRRYLNVVTRHRYC^acetyl-NH2 (GPSQPTYPGDDAPVRDLRRFYRDLRRYLNVVTRHRYC(Ac)-NH2) [6.3]
- Tm (temperature dependent ellipticity at 222 nm) [8]: 33 °C

Compound: K^DexGPSQPTYPGDDAPVRDLIRPYRDLQRPLRVVTRHRY (K(dexamethasone)GPSQPTYPGDDAPVRDLIRPYRDLQRPLRVVTRHRY-NH2) [5.2-P2Dex]
- translocation ratio (TR), GR★-GFP [9]: 1.35±0.11

Compound: K^DexGPSQPTYPGDDAPVRDLIRPYRDLRRPLNVVTRHRY (K(dexamethasone)GPSQPTYPGDDAPVRDLIRPYRDLRRPLNVVTRHRY-NH2) [5.3-P2Dex]
- translocation ratio (TR), GR★-GFP [9]: 1.64±0.27

Compound: K^RhodGRKKRRQRRRPPQY-NH2 (K(rhodamine)GRKKRRQRRRPPQY-NH2; reading uncertain; also: printed as K^RhodGRKKRRQRRRPPQY-NH2) [TatR]
- degradation during incubation with HeLa cells (HPLC of whole cell lysates) [1]: numerous additional peaks
- degradation by cathepsin D (HPLC) [2]: little or no degradation
- effect of EIPA on uptake [3]: dramatically reduced the uptake
- effect of dynasore on uptake [3]: completely blocked the uptake
- effect of MβCD on uptake [3]: completely blocked the uptake
- degradation by cathepsin B (HPLC) [4]: little or no degradation
- material found in SLO cytoplasmic extracts (HPLC) [5]: retention times distinct from the starting material; also recorded: little or no material with the same retention time as the starting material
- intracellular red fluorescent signal [6]: red fluorescent puncta throughout the cytosol
- degradation by cathepsin L (HPLC) [7]: little or no degradation

Compound: RRRRRRRR [Arg8]
- intracellular concentration on co-incubation with ZF 5.3 [10]: did not significantly increase

Compound: WYSCNVCGKAFVLSRHLNRHLRVHRRAT [ZF5.3]
- trafficking a biologically active peptide into the cytosol [11]: superior to both Antp and Arg8
